Entries after “also recorded” stand apart in the source; their conditions may differ.
Tested on: A549 lung cancer cell line
Assay: Combination viability/proliferation assays (384-well IC50 ratio, 96-well MacSynergy II)
Format: cell-based
Conditions: for Ratio ([…] DMSO IC50/combination IC50) / Combination in A549: K101A (synergism/antagonism) / Combination in A549: K101E (synergism/antagonism) / Combination in A549: K102 (synergism/antagonism) / concentration range in which the antagonistic effect was detected: A549; for Ratio ([…] DMSO IC50/combination IC50): NC: no change; for effect in combination with the PKC activator compounds in inhibiting the growth of A549 cells: PKC activator compounds (K101A, K101E, K102); for Combination in A549: K101A (synergism/antagonism): agent assayed in combination with K101A; for Combination in A549: K101A (synergism/antagonism) / Combination in A549: K102 (synergism/antagonism): * 2-3 concentrations, # full concentration ranges; for Combination in A549: K101E (synergism/antagonism): agent assayed in combination with K101E; for Combination in A549: K102 (synergism/antagonism): agent assayed in combination with K102; for concentration range in which the antagonistic effect was detected: with PKC activator compounds (FIG. 10A, 10B), trametinib full range tested, erlotinib lower half of range tested
Experimental: A 96-well MacSynergy II format for combination test was also used. […] The analysis was done with the SQRT(Data) scale and the four parameter Hill curve was fitted using XLfit5.1 (the MacSynergy II Excel Spreadsheet) for the inhibition data. Synergy (positive number) or Antagonism (negative number) volumes were calculated. […] Three-dimensional MacSynergy II graphs were generated where positive values indicated synergism and negative values indicated antagonism.

[1] = in combination with 0.0002 μM K102
[2] = in combination with 0.002 μM K102
[3] = in combination with 0.005 μM K101A
[4] = in combination with 0.02 μM K102
[5] = in combination with 0.05 μM K101A
[6] = in combination with 0.5 μM K101A, ratio >2 synergistic, <0.5 antagonistic

| SMILES | Ratio ([…] DMSO IC50/combination IC50) [1] | Ratio ([…] DMSO IC50/combination IC50) [2] | Ratio ([…] DMSO IC50/combination IC50) [3] | Ratio ([…] DMSO IC50/combination IC50) [4] | Ratio ([…] DMSO IC50/combination IC50) [5] | Ratio ([…] DMSO IC50/combination IC50) [6] | effect in combination with the PKC activator compounds in inhibiting the growth of A549 cells | Combination in A549: K101A (synergism/antagonism) | Combination in A549: K101E (synergism/antagonism) | Combination in A549: K102 (synergism/antagonism) | effect in combination with K101A or K102 in inhibiting the growth of A549 cells | concentration range in which the antagonistic effect was detected | Ratio ([…] DMSO IC50/combination IC50) (in combination with […] K101E) |
| --- | --- | --- | --- | --- | --- | --- | --- | --- | --- | --- | --- | --- | --- |
| Nc1ccn([C@@H]2O[C@H](CO)[C@@H](O)C2(F)F)c(=O)n1 [Gemcitabine] | 0.72 | 0.76 | 0.80 | 0.69 | 0.91 | 0.97 | insignificant synergism or antagonism | None | None | None |  |  |  |
| CS(=O)(=O)CCNCc1ccc(-c2ccc3ncnc(Nc4ccc(OCc5cccc(F)c5)c(Cl)c4)c3c2)o1 [Lapatinib] |  |  |  |  |  |  | no or insignificant antagonistic effect; also recorded: insignificant synergism or antagonism |  |  |  |  |  |  |
| O=C1[O][Pt]2([NH][C@@H]3CCCC[C@H]3[NH]2)[O]C1=O [Oxaliplatin] |  |  |  |  |  |  |  |  |  |  | synergy |  |  |
| C#Cc1cccc(Nc2ncnc3cc(OCCOC)c(OCCOC)cc23)c1 [Erlotinib] |  |  |  |  |  |  | Moderate antagonistic effect |  |  |  |  | 0.3 to 2.5 µM |  |
| CC(=O)Nc1cccc(-n2c(=O)n(C3CC3)c(=O)c3c(Nc4ccc(I)cc4F)n(C)c(=O)c(C)c32)c1 [Trametinib] | 0.72 | 0.80 | 1.36 | 0.44 | 1.10 | 0.50 |  |  |  |  |  | 0.003 to 0.2 µM |  |
| Nc1cc(C(F)(F)F)c(-c2cc(N3CCOCC3)nc(N3CCOCC3)n2)cn1 [BKM-120, 5-[2,6-Di(4-morpholinyl)-4-pyrimidinyl]-4-(trifluoromethyl)-2-pyridinamine] | 0.86 | 1.24 | 0.94 | 2.36 | 1.21 | 2.43 | strong synergy | Synergism (strong) | None | Synergism (moderate) |  |  |  |
| CO[C@H]1C[C@@H]2CC[C@@H](C)[C@@](O)(O2)C(=O)C(=O)N2CCCC[C@H]2C(=O)O[C@H]([C@H](C)C[C@@H]2CC[C@@H](OCCO)[C@H](OC)C2)CC(=O)[C@H](C)/C=C(\C)[C@@H](O)[C@@H](OC)C(=O)[C@H](C)C[C@H](C)/C=C/C=C/C=C/1C [Everolimus] |  | >2 |  | >2 | >2 | >2 | strong synergy | Synergism | Synergism. | Synergism |  |  | >2 |
| CC(C)C[C@H](NC(=O)[C@H](CCc1ccccc1)NC(=O)CN1CCOCC1)C(=O)N[C@@H](Cc1ccccc1)C(=O)N[C@@H](CC(C)C)C(=O)[C@@]1(C)CO1 [Carfilzomib] |  |  |  |  |  |  | insignificant synergism or antagonism | None |  | None |  |  |  |

— patent US10722484B2, “Methods of cancer treatment” (K-Gen, Inc., priority 2016, dated 2020)
